Results as given in patent US9486398B2, “Composition” (J-OIL MILLS, INC., priority 2012, dated 2016).
Entries after “also recorded” stand apart in the source; their conditions may differ.

Test system: hairless mice Hos:HR1
Assay: Stratum corneum water-retaining function (moisture in the keratin, corneometer, back skin)
Assay type: in vivo
Conditions: intragastric once a day for 28 days, menaquinone-7 10 mg/kg, collagen hydrolysate 80 mg/kg, soyasapogenol 50 mg/kg
Experimental: In addition to the reference diet, the test substances shown in Table 6 were administered to the study groups in Examples and Comparative Examples. By dissolving the test substances in a 0.5% carboxymethyl cellulose sodium solution (hereinafter referred to as CMC-Na solution), the composition (skin function improving agent) was prepared.
Forty two hairless mice Hos:HR1 (male, 5-week old) were prepared. Through the 1-week acclimation period and the test period, the mice were freely fed a reference diet (product name: CRF-1, manufactured by Oriental Yeast Co., Ltd.) and water. The insolation condition was set to day and night every 12 hours. After the acclimation period, grouping of 6 mice/group was performed so that the body weight between groups was homogenous.
Continuous and forced intragastric administration of the above composition was performed to the mice once a day for 28 days using a stomach tube. The reference diet and 0.05 mL per 10 g of body weight of a 0.5% CMC-Na solution were administered to the control group.
The keratin usually contains 20% to 30% of water. […] By measuring the moisture in the keratin, the stratum corneum water-retaining function (i.e., skin moisture-retaining function) of a skin function improving agent can be evaluated. […]

CC(C)=CCC/C(C)=C/CC/C(C)=C/CC/C(C)=C/CC/C(C)=C/CC/C(C)=C/CC/C(C)=C/CC1=C(C)C(=O)c2ccccc2C1=O [Comparative Example 1, menaquinone-7]
keratin moisture fluctuation value (moisture in the keratin, day 28 minus day before administration): no function of keratin water retention; also recorded: no stratum corneum water-retaining function
keratin moisture fluctuation value (moisture in the keratin, day 28 minus day before administration) (listed as menaquinone-7): does not exert the keratin water-retaining function; also recorded: does not exert the stratum corneum water-retaining function
